Experimental data published in ChEMBL document CHEMBL4251569, “Camptothecin-psammaplin A hybrids as topoisomerase I and HDAC dual-action inhibitors” (Eur J Med Chem, 2018).

Assays:
[1] = cells; assay type: functional, cell-based; details: Homo sapiens, 72 h
[2] = system: DU-145; assay: cells; assay type: functional, cell-based; details: Homo sapiens, DU-145, 72 h
[3] = system: HeLa; assay: cells; assay type: functional, cell-based; details: Homo sapiens, 72 h
[4] = system: DG-75; assay: cells; assay type: functional, cell-based; details: Homo sapiens, DG-75, 72 h
[5] = Antiproliferative activity against human Mino cells at 10 uM after 72 hrs by MTT assay relative to control; assay type: functional
[6] = system: A2780; assay: cells; assay type: functional, cell-based; details: Homo sapiens, A2780, 72 h
[7] = cells; assay type: functional, cell-based; details: Homo sapiens, A2780/DX, 72 h
[8] = cells; assay type: functional, cell-based; details: Homo sapiens, 72 h; remark: listed apart in the source
[9] = system: L-428; assay: Antiproliferative activity against human L428 cells at 10 uM after 72 hrs by MTT assay relative to control; assay type: functional
[10] = system: NCI-H460; assay: cells; assay type: functional, cell-based; details: Homo sapiens, NCI-H460, 72 h
[11] = system: KM-H2; assay: cells; details: Homo sapiens, KM-H2, 72 h
[12] = system: NB-4; assay: cells; assay type: functional, cell-based; details: Homo sapiens, NB-4, 72 h
[13] = cells; assay type: functional, cell-based; details: Homo sapiens, MINO, 72 h
[14] = system: U2932; assay: cells; assay type: functional, cell-based; details: Homo sapiens, U2932, 72 h
[15] = system: DG-75; assay: Antiproliferative activity against human DG75 cells at 10 uM after 72 hrs by MTT assay relative to control; assay type: functional
[16] = cells; assay type: functional, cell-based; details: Homo sapiens, MM487, 72 h
[17] = system: HepG2; assay: Antiproliferative activity against human HepG2 cells after 72 hrs by SRB assay; assay type: functional, cell-based; details: HepG2, 72 h
[18] = system: JeKo-1; assay: Antiproliferative activity against human JeKo1 cells at 10 uM after 72 hrs by MTT assay relative to control; assay type: functional
[19] = system: CAPAN-1; assay: cells; assay type: functional, cell-based; details: Homo sapiens, CAPAN-1, 72 h
[20] = system: HT-29; assay: Antiproliferative activity against human HT-29 cells after 72 hrs by SRB assay; assay type: functional, cell-based; details: HT-29, 72 h
[21] = system: JeKo-1; assay: cells; assay type: functional, cell-based; details: Homo sapiens, JeKo-1, 72 h
[22] = system: A-431; assay: cells; assay type: functional, cell-based; details: Homo sapiens, A-431, 72 h
[23] = system: OCI-Ly3; assay: Antiproliferative activity against human OCI-LY3 cells at 10 uM after 72 hrs by MTT assay relative to control; assay type: functional
[24] = system: L-428; assay: cells; assay type: functional, cell-based; details: Homo sapiens, L-428, 72 h
[25] = system: MM473; assay: animal or person; details: Mus musculus, MM473, iv, read-out: INH
[26] = system: KM-H2; assay: Antiproliferative activity against human KM-H2 cells at 10 uM after 72 hrs by MTT assay relative to control; assay type: functional
[27] = system: OCI-Ly3; assay: cells; details: Homo sapiens, OCI-Ly3, 72 h

Question: What does the source list for `CCc1c2c(nc3ccc(OC(=O)N4CCC(N5CCCCC5)CC4)cc13)-c1cc3c(c(=O)n1C2)COC(=O)[C@]3(O)CC` [IRINOTECAN]?
Answer: IC50 [1]: 0.74 µM; IC50 [2]: 2.8 µM; IC50 [3]: 5.8 µM; IC50 [4]: > 10 µM; Activity [5]: 36%; IC50 [6]: 3.8 µM; IC50 [7]: 20.1 µM; IC50 [8]: 10 µM; Activity [9]: 0%; IC50 [10]: 2.4 µM; IC50 [11]: > 10 µM; IC50 [12]: 1 µM; IC50 [13]: > 10 µM; IC50 [14]: 4.4 µM; Activity [15]: 0%; IC50 [16]: 9.4 µM; IC50 [17]: 4 µM; Activity [18]: 48%; IC50 [19]: 1.5 µM; IC50 [20]: 4.8 µM; IC50 [21]: > 10 µM; IC50 [22]: 4.1 µM; Activity [23]: 0%; IC50 [24]: > 10 µM; inhibition in vivo at 20 mg/kg [25]: 37%; Activity [26]: 12%; IC50 [27]: > 10 µM
